From the supplement of paper PMC10307832

compound: CC(C)=CC[C@@H](O)C1=CC(=O)c2c(O)ccc(O)c2C1=O [Shikonin] + COc1cc2c(Oc3ccc(NC(=O)C4(C(=O)Nc5ccc(F)cc5)CC4)cc3F)ccnc2cc1OCCCN1CCOCC1 [Foretinib] (partner 0.25 µM); experiment: relative viability (nuclei count vs DMSO), 5 days (fraction); higher = more cells survive; details: first compound 1 µM
Method in brief: (§1)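 Five library-drug doses in √10 steps were combined with a fixed anchor-drug dose, or a single drug was given alone, by pin tool to lung cancer cell lines in 1536-well plates the day after seeding. Nuclei were stained and counted after 5 days. Relative viability is the nuclei count in treated wells over that in vehicle wells, taken as the median of duplicate plates.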

Cell Line	relative viability
H3255	0.856
COR-L23	0.988
COR-L 105	1.33
IA-LM	1.15
LOU-NH91	0.9
ChaGo-K-1	0.943
A549	1.11
SW 900	0.801
NCI-H2023	0.931
NCI-H1299	1.09
NCI-H661	0.976
NCI-H1563	0.902
SW 1573	0.765
SK-LU-1	0.788

compound: CC(C)=CC[C@@H](O)C1=CC(=O)c2c(O)ccc(O)c2C1=O [Shikonin] + Cc1cc(Nc2cc(N3CCN(C)CC3)nc(Sc3ccc(NC(=O)C4CC4)cc3)n2)n[nH]1 [Tozasertib] (partner 0.1 µM); experiment: as above; details: first compound 0.01 µM
Method in brief: as §1

Cell Line	relative viability
NCI-H2342	0.408
NCI-H1623	0.423
PC-14	0.619
NCI-H1650	0.419
NCI-H2009	0.747
NCI-H1993	0.627
NCI-H520	0.49
PC-3 [JPC-3]	0.883
LCLC-103H	0.452
NCI-H647	0.407
NCI-H2228	0.177
EMC-BAC-2	0.279
NCI-H2087	0.307
HCC-366	0.118
NCI-H1666	0.622
NCI-H650	0.69

Cell Line	relative viability
LK-2	0.178
NCI-H2126	0.91
NCI-H1648	0.537
SK-MES-1	1.1
H3255	0.804
COR-L23	0.202
COR-L 105	0.254
LOU-NH91	0.685
ChaGo-K-1	0.212
HCC-44	0.901
NCI-H522	0.599
SW 900	0.546
NCI-H2023	0.477
NCI-H661	0.371
SW 1573	0.194
SK-LU-1	0.317

same assay, conditions: first compound 0.1 µM

Cell Line	relative viability
NCI-H2342	0.494
NCI-H1623	0.472
PC-14	0.638
NCI-H1650	0.367
NCI-H2009	0.774
NCI-H1993	0.547
NCI-H520	0.436
PC-3 [JPC-3]	0.984
LCLC-103H	0.498
NCI-H647	0.323
NCI-H2228	0.273
EMC-BAC-2	0.283
NCI-H2087	0.254
HCC-366	0.103
NCI-H1666	0.636
NCI-H650	0.793

Cell Line	relative viability
LK-2	0.154
NCI-H2126	0.967
NCI-H1648	0.404
SK-MES-1	1.05
H3255	0.535
COR-L23	0.197
COR-L 105	0.318
LOU-NH91	0.711
ChaGo-K-1	0.232
HCC-44	0.732
NCI-H522	0.555
SW 900	0.458
NCI-H2023	0.453
NCI-H661	0.359
SW 1573	0.24
SK-LU-1	0.338

same assay, conditions: first compound 0.3162 µM

Cell Line	relative viability
NCI-H2342	0.502
NCI-H1623	0.441
PC-14	0.743
NCI-H1650	0.365
NCI-H2009	0.815
NCI-H1993	0.571
NCI-H520	0.475
PC-3 [JPC-3]	1.01
LCLC-103H	0.52
NCI-H647	0.247
NCI-H2228	0.234
EMC-BAC-2	0.323
NCI-H2087	0.198
HCC-366	0.166
NCI-H1666	0.665
NCI-H650	0.788

Cell Line	relative viability
LK-2	0.165
NCI-H2126	0.869
NCI-H1648	0.471
SK-MES-1	0.998
H3255	0.64
COR-L23	0.171
COR-L 105	0.327
LOU-NH91	0.613
ChaGo-K-1	0.236
HCC-44	1.19
NCI-H522	0.615
SW 900	0.527
NCI-H2023	0.383
NCI-H661	0.355
SW 1573	0.188
SK-LU-1	0.351

same assay, conditions: first compound 1 µM

Cell Line	relative viability
NCI-H2342	0.507
NCI-H1623	0.449
PC-14	0.652
NCI-H1650	0.3
NCI-H2009	0.56
NCI-H1993	0.551
NCI-H520	0.433
PC-3 [JPC-3]	0.94
LCLC-103H	0.516
NCI-H647	0.193
NCI-H2228	0.212
EMC-BAC-2	0.267
NCI-H2087	0.202
HCC-366	0.114
NCI-H1666	0.522
NCI-H650	0.66
LK-2	0.154
NCI-H2126	0.846
NCI-H1648	0.408
SK-MES-1	0.857
